According to article PMC10352257, “In vivo effects of the alpha-synuclein misfolding inhibitor minzasolmin supports clinical development in Parkinson’s disease” (NPJ Parkinson's Disease, 2023):
Entries after “also recorded” stand apart in the source; their conditions may differ.

Key:
Line 61 transgenic mice [1] = assay: Round beam traversal test (composite gait score), 3-month administration study; format: in vivo, mouse; conditions: for round beam composite score, Kruskal-Wallis mean rank: Line 61 tg, Line 61 tg/Vehicle 6.611, Non-tg/Vehicle 34.25
From the text: A transgenic mouse model of Parkinson’s disease overexpressing human wild-type ASYN under the murine Thy-1 promoter on a mixed C57Bl/6 background was used in the present studies (commonly referred to Line 61)[49]. The Line 61 transgenic mouse model of Parkinson’s disease develops extensive accumulation of ASYN in areas relevant to Parkinson’s disease[49]–[51], neurodegeneration (as evidenced by loss of tyrosine hydroxylase[52],[53] and dopamine transporter immunoreactivity[18] in the striatum), inflammation, and both motor and non-motor functional deficits. Multiple cohorts of mice were transferred from the University of California, San Diego to a Neuropore-funded AAALAC-accredited vivarium facility per a laboratory service agreement between Neuropore Therapies, Inc. and the laboratory of Dr. Eliezer Masliah under institutional animal care and use committee (IACUC) Protocol S02221. All in vivo testing was conducted by Neuropore personnel under Explora Biosciences animal care and use protocol (ACUP) number E15-016-2. Three-month-old male transgenic and age-matched non-transgenic littermate control mice were used and housed up to 5 per cage. Animals received free access to food and water prior to the experiment. The vivarium ambient room temperature was monitored daily and kept within a range of 68–72 degrees Fahrenheit. […]
Line 61 transgenic mice have robust and visually apparent deficits in gait as evaluated in the round beam traversal test by 6 months of age that are improved by treatment with small molecule compounds including ASYN misfolding inhibitors[17],[18] and the molecular tweezer compound CLR01[56]. […] Videotapes were then scored by a secondary evaluator using a newly developed composite rating system for specific observed features of Line 61 gait during the round beam assessment. […] Scores were analyzed by nonparametric Kruskal–Wallis one-way ANOVA with key comparisons defined a priori, first to test for a phenotypic difference between vehicle-treated groups and then to test for minzasolmin-related treatment effects in Line 61 transgenic mice. […]

[2] = system: proteinase K-resistant ASYN; assay: Immunohistochemical evaluation of proteinase K-resistant ASYN in brain sections, 3-month study; format: in vivo, mouse; conditions: for change in proteinase K-resistant ASYN immunolabeling vs vehicle-treated transgenic mice: striatum (P < 0.0001); for proteinase K-resistant ASYN immunolabeling, mean: Line 61 tg, 3 months, adjusted P <0.0001
From the text: (§1) A transgenic mouse model of Parkinson’s disease overexpressing human wild-type ASYN under the murine Thy-1 promoter on a mixed C57Bl/6 background was used in the present studies (commonly referred to Line 61)[49]. The Line 61 transgenic mouse model of Parkinson’s disease develops extensive accumulation of ASYN in areas relevant to Parkinson’s disease[49]–[51], neurodegeneration (as evidenced by loss of tyrosine hydroxylase[52],[53] and dopamine transporter immunoreactivity[18] in the striatum), inflammation, and both motor and non-motor functional deficits. Multiple cohorts of mice were transferred from the University of California, San Diego to a Neuropore-funded AAALAC-accredited vivarium facility per a laboratory service agreement between Neuropore Therapies, Inc. and the laboratory of Dr. Eliezer Masliah under institutional animal care and use committee (IACUC) Protocol S02221. All in vivo testing was conducted by Neuropore personnel under Explora Biosciences animal care and use protocol (ACUP) number E15-016-2. Three-month-old male transgenic and age-matched non-transgenic littermate control mice were used and housed up to 5 per cage. Animals received free access to food and water prior to the experiment. The vivarium ambient room temperature was monitored daily and kept within a range of 68–72 degrees Fahrenheit. Animals were kept on a 12:12 diurnal light cycle, with lights on at 0600.
(§2) Minzasolmin was dissolved in a vehicle solution consisting of 40% Captisol (CyDex Pharmaceuticals, Inc.; Kansas, USA) in sterile water and administered at a volume of 0.1 ml/20 g of body weight. Animals received a Monday–Friday daily intraperitoneal injection of vehicle, or 1 or 5 mg/kg minzasolmin for approximately 90 days. Animals received treatment up to and including a final injection 1 h prior to euthanasia. All study solutions were blind coded and experimenters were blinded to genotype and treatment group assignments for the duration of the study, ex vivo evaluations (i.e., neuropathology sample processing and imaging, videotape scoring) and through penultimate data analyses (i.e., data quality control with documented exclusions prior to unblinding; unblinding required for a priori pairwise comparisons).
(§3) All subjects were euthanized within 1 h of the last treatment and brain and blood were collected. Tissue processing and imaging methods were conducted as described previously[17],[18],[52] and performed under a lab service agreement between UCSD and Neuropore Therapies. All samples were blind coded to genotype and treatment group throughout immune-histological processing and imaging. The right hemibrain was post-fixed in phosphate-buffered 4% paraformaldehyde (pH 7.4) at 4 °C for 48 and then serially sectioned into […] thick […] sections using a vibratome. Sections were free-floated and incubated overnight at 4 °C with primary antibodies. To confirm the specificity of primary antibodies, control experiments were performed in which sections were incubated overnight in the absence of primary antibody, pre-immune serum, or primary antibody pre-adsorbed for 48 h with 20-fold excess of the corresponding peptide. Tissue collection, processing, and imaging methods were conducted as described previously. Briefly, the right hemibrain was post-fixed in phosphate-buffered 4% paraformaldehyde (pH 7.4) at 4 °C for 48 h, and then serially sectioned into 40 µm thick coronal sections using a vibratome. Sections were free-floated and incubated overnight at 4 °C with primary antibodies. To confirm the specificity of primary antibodies, control experiments were performed in which sections were incubated overnight in the absence of primary antibody (data not shown). Immunolabeled sections were imaged with a Zeiss 63× (N.A. 1.4) objective on an Axiovert 35 microscope (Zeiss, Germany). Immunolabeling was evaluated as a corrected optical density across a field of view. […]

Line 61 transgenic mice [3] = assay: Tolerability in the 3-month administration study; format: in vivo; conditions: 1 or 5 mg/kg i.p. once daily for 3 months; no apparent adverse effects on subject health
From the text: as §1, with “[…].” for “Three-month-old male transgenic and age-matched non-transgenic littermate control mice were used and housed up to 5 per cage.”, “0600. […]” for “0600.”

total ASYN = assay: Immunohistochemical evaluation of total ASYN in brain sections, 3-month study; format: in vivo, mouse; conditions: for change in total ASYN immunolabeling vs vehicle-treated Line 61 transgenic mice: hippocampus and striatum (P < 0.0001); for total ASYN immunolabeling, mean: Line 61 tg, 3 months
From the text: as §1, §2, §3

CCCC[C@H](Cc1c[nH]c2ccccc12)NC(=O)c1cnc(N2CCN(C)CC2)s1 [minzasolmin]
effect on round beam composite score (gait) vs vehicle-treated Line 61 transgenic mice (Line 61 transgenic mice [1]; 1 mg/kg, after 70 days of treatment, P < 0.01): improved; also recorded: attenuated
round beam composite score, Kruskal-Wallis mean rank (Line 61 transgenic mice [1]; 1 mg/kg): 21.77
round beam composite score, Kruskal-Wallis mean rank (Line 61 transgenic mice [1]; 5 mg/kg): 16.80
change in proteinase K-resistant ASYN immunolabeling vs vehicle-treated transgenic mice ([2]; 1 mg/kg, cortex, hippocampus): statistically significant reductions; also recorded: statistically significant decreases
change in proteinase K-resistant ASYN immunolabeling vs vehicle-treated transgenic mice ([2]; 5 mg/kg, cortex, hippocampus): statistically significant reductions; also recorded: statistically significant decreases
effect of dose on proteinase K-resistant ASYN, 1 vs. 5 mg/kg ([2]; any examined region): no statistically significant effects
proteinase K-resistant ASYN immunolabeling, mean ([2]; cortex, 1 mg/kg, Line 61 tg/Vehicle 242.5): 180.6
proteinase K-resistant ASYN immunolabeling, mean ([2]; cortex, 5 mg/kg, Line 61 tg/Vehicle 242.5): 187.3
proteinase K-resistant ASYN immunolabeling, mean ([2]; hippocampus, 1 mg/kg, Line 61 tg/Vehicle 270.1): 176.6
proteinase K-resistant ASYN immunolabeling, mean ([2]; hippocampus, 5 mg/kg, Line 61 tg/Vehicle 270.1): 178.3
proteinase K-resistant ASYN immunolabeling, mean ([2]; striatum, 1 mg/kg, Line 61 tg/Vehicle 266.7): 176.1
proteinase K-resistant ASYN immunolabeling, mean ([2]; striatum, 5 mg/kg, Line 61 tg/Vehicle 266.7): 182.2
tolerability of treatments for the duration of the experiment (Line 61 transgenic mice [3]): well tolerated
change in total ASYN immunolabeling vs vehicle-treated Line 61 transgenic mice (total ASYN; 1 mg/kg, cortex (P < 0.05)): statistically significant decreases; also recorded: statistically significant reductions
change in total ASYN immunolabeling vs vehicle-treated Line 61 transgenic mice (total ASYN; 5 mg/kg, cortex): statistically significant decreases; also recorded: statistically significant reductions
effect of dose on total ASYN, 5 mg/kg compared to 1 mg/kg (total ASYN; cortex (P < 0.05) and hippocampus (P < 0.01), unpaired two tailed t tests): greater reductions
total ASYN immunolabeling, mean (total ASYN; cortex, 1 mg/kg, corrected optical density, Line 61 tg/Vehicle 352.8, adjusted P 0.0148): 282.1
total ASYN immunolabeling, mean (total ASYN; cortex, 5 mg/kg, Line 61 tg/Vehicle 352.8, adjusted P <0.0001): 232.8
total ASYN immunolabeling, mean (total ASYN; hippocampus, 1 mg/kg, Line 61 tg/Vehicle 392.9, adjusted P <0.0001): 286.7
total ASYN immunolabeling, mean (total ASYN; hippocampus, 5 mg/kg, Line 61 tg/Vehicle 392.9, adjusted P <0.0001): 229.7
effect of dose on total ASYN, 1 vs. 5 mg/kg (total ASYN; striatum): no statistically significant effect
total ASYN immunolabeling, mean (total ASYN; striatum, 1 mg/kg, Line 61 tg/Vehicle 365.3, adjusted P <0.0001): 265.4
total ASYN immunolabeling, mean (total ASYN; striatum, 5 mg/kg, Line 61 tg/Vehicle 365.3, adjusted P <0.0001): 245.5
